Source: patent US8691576B2, “Regeneration and mass propagation of Jatropha curcas through somatic embryogenesis” (Joil (S) Pte Ltd., priority 2008, dated 2014)

Columns and labels:
Assay type in all cases: cell-based
[1] = test system: Jatropha curcas zygotic embryo and endosperm explants; experiment: Type I somatic embryo (TISE) formation on solid media with 2,4-D; details: for TISE (%) / TISE Count: 0.1 mg/l kinetin, 8 weeks
Description: Developing fruits were surfaced sterilized. The immature zygotic embryos and endosperms (En) were separated from each other using a surgical scalper blade. Zygotic embryos longer than 0.5 cm were further cut at the cotyledon-hypocotyl junction to produce explants of cotyledons only and hypocotyls with the root radicals. Zygotic embryos shorter than 0.5 cm were cultured intact as they are too fragile. We classified these explants as cotyledons (Cot); hypocotyls with root radicals (Rh); intact embryos (Eb) and endosperm (En).
The explants were cultured on a solid medium comprising MS salt, B5 vitamins and various concentrations of 2,4-D ranging from 0.1 to 20 mg/L. Kinetin was added at 0.1 mg/L in some of the treatments. Somatic embryos started to emerge without obvious sign of calli formation around 10th day, which predominantly formed on the edge of the endosperm tissues where the embryo had been detached. The somatic embryos most likely originated from the residual diploid cells of the zygotic embryo tissue attached on the endosperm. […] These somatic embryos developed speedily and predominantly matured as single embryo (FIG. 1). We called them Type I Somatic Embryo (TISE).

[2] = test system: Jatropha curcas calli from zygotic embryo explants; experiment: Type II somatic embryo (TIISE) formation after shifting calli to hormone-free DGA medium; details: then DGA medium 6 weeks
Description: Yellowish or white calli were observed on the explants from 3rd week if subcultured in the same medium. Extensively tested variables for induction of somatic embryogenesis were media of numerous compositions. Combinations of MS salt, Gamborg B5 salts, MS vitamins, Gamborg B5 vitamins; presence or absence of NH4NO3; amount of KNO3 (1.9-3.8 g/l); organic nitrogen source, e.g., free amino acids, casein hydrolysate; trace amount of hormones, e.g., kinetin (0-1 mg/l), benzyl adenine (0-1 mg/l); choice of carbon sources, e.g., glucose, sucrose and maltose; and activated carbon (5 g/l). In a large number of media, the calli died within 1-2 weeks when shifted into a new medium. […] An example of the medium is DGA medium in which 1 g/l glutamine and 0.5 g/l asparagines was supplemented. A cluster of somatic embryos of various stages emerged around the 10th day after the medium shift to DGA (FIG. 2).
Somatic embryos formed in DGA medium underwent multiplication and maturation simultaneously. We called them Type II Somatic Embryos (TIISE). TIISEs were preferentially formed on explants previously cultured in media containing higher concentration of 2,4-D, for example, 2-5 mg/l during the first induction culture (Table 1).

[3] = test system: Jatropha curcas embryogenic calli; experiment: Embryogenic liquid suspension culture; details: liquid medium
Description: FIGS. 5A-5D show embryogenic liquid suspension culture. About 50 mg embryogenic calli produced in solid DGA medium were inoculated in 20 ml modified DGA liquid media. Embryos larger than 2 mm were removed before inoculation. Subculture was done every two weeks. Photos were taken after 2 subcultures. FIG. 5A: 20 g/l sucrose, 1 g/l glutamine, 0.5 g/l asparagine, no 2,4-D. FIG. 5B: 20 g/l sucrose, 1 g/l glutamine, 0.5 g/l asparagine, 0.2 g/1 2,4-D. FIG. 5C: 30 g/l sucrose, 1 g/l glutamine, 0.5 g/l asparagine, 0.2 g/1 2,4-D. FIG. 5D: 20 g/l sucrose, 1 g/l glutamine, 0.5 g/l asparagine, 1 g/1 2,4-D. Arrow indicates the non-embryogenic ball-shaped calli. Scale bar represents 1 cm.
Liquid cultures were performed in 65 mm plastic cylinder containers or 250 ml glass conical flasks that were placed in shakers set at 80 rpm, 28° C. constant temperature and 16-8 hours day-light cycles.
Effects 2,4-D and carbon source on establishment of somatic embryogenic liquid suspension culture was investigated. […] At sucrose level ranging from 10-30 g/l, continued culture lead to maturation of the somatic embryo with no new initiation of secondary embryos (FIG. 5A). The somatic embryos thus produced share good synchrony and are excellent materials for re-induction of TIISEs (Refer to Example 13). […] The suspension cultures were stable for months if large embryos were removed. Further, sucrose concentration needs to be reduced below about 20 g/l (compare FIGS. 5B and 5C).

With O=C(O)COc1ccc(Cl)cc1Cl [2,4-D, 2,4-dichlorophenoxyacetic acid] the “TISE (%)” value ([1]; 2,4-D 0.1 mg/L) was 84%, the “TISE Count” value ([1]; 2,4-D 0.1 mg/L, 19 explants) was 16 and the “TISE (%)” value ([1]; 2,4-D 0.2 mg/L) was 54%. The “TISE Count” value ([1]; 2,4-D 0.2 mg/L, 28 explants) was 15, the “TISE (%)” value ([1]; 2,4-D 0.5 mg/L) was 50% and the “TISE Count” value ([1]; 2,4-D 0.5 mg/L, 16 explants) was 8. The “TISE (%)” value ([1]; 2,4-D 1 mg/L) was 42%, the “TISE Count” value ([1]; 2,4-D 1 mg/L, 19 explants) was 8 and the “TISE (%)” value ([1]; 2,4-D 2 mg/L) was 76%. The “TISE Count” value ([1]; 2,4-D 2 mg/L, 25 explants) was 19, the “TISE (%)” value ([1]; 2,4-D 5 mg/L) was 57% and the “TISE Count” value ([1]; 2,4-D 5 mg/L, 23 explants) was 13. For the same molecule, the “TISE (%)” value ([1]; 2,4-D 10 mg/L) was 43%, the “TISE Count” value ([1]; 2,4-D 10 mg/L, 21 explants) was 9 and the “TISE (%)” value ([1]; 2,4-D 20 mg/L) was 38%. The “TISE Count” value ([1]; 2,4-D 20 mg/L, 13 explants) was 5, the TISE formation ([1]; 2,4-D 0.1 to 20 mg/L) was “appeared to be inhibitory at high levels” and the “TIISE (%)” value ([2]; 2,4-D 0.1 mg/L 4 weeks) was 11%. The “TIISE Count” value ([2]; 2,4-D 0.1 mg/L 4 weeks, 19 explants) was 2, the “TIISE (%)” value ([2]; 2,4-D 0.2 mg/L 4 weeks) was 4% and the “TIISE Count” value ([2]; 2,4-D 0.2 mg/L 4 weeks, 28 explants) was 1. The “TIISE (%)” value ([2]; 2,4-D 0.5 mg/L 4 weeks) was 19%, the “TIISE Count” value ([2]; 2,4-D 0.5 mg/L 4 weeks, 16 explants) was 3 and the “TIISE (%)” value ([2]; 2,4-D 1 mg/L 4 weeks) was 0%. The “TIISE Count” value ([2]; 2,4-D 1 mg/L 4 weeks, 19 explants) was 0, the “TIISE (%)” value ([2]; 2,4-D 2 mg/L 4 weeks) was 36% and the “TIISE Count” value ([2]; 2,4-D 2 mg/L 4 weeks, 25 explants) was 9. The “TIISE (%)” value ([2]; 2,4-D 5 mg/L 4 weeks) was 39%, the “TIISE Count” value ([2]; 2,4-D 5 mg/L 4 weeks, 23 explants) was 9 and the “TIISE (%)” value ([2]; 2,4-D 10 mg/L 4 weeks) was 24%. The “TIISE Count” value ([2]; 2,4-D 10 mg/L 4 weeks, 21 explants) was 5, the “TIISE (%)” value ([2]; 2,4-D 20 mg/L 4 weeks) was 23% and the “TIISE Count” value ([2]; 2,4-D 20 mg/L 4 weeks, 13 explants) was 3. For the same molecule, the “maturation of somatic embryos” value ([3]; 2,4-D 0.1-0.5 g/l) was “significantly inhibited maturation of somatic embryos” and the “calli multiplication and embryogenicity” value ([3]; 2,4-D higher than 0.5 g/l) was “calli multiplication and embryogenicity was poor”.
